Reference: patent US20210177814A1, “USE OF GUANABENZ OR DERIVATES THEREOF FOR THE TREATMENT OF TYPE I IFN-DEPENDENT PATHOLOGIES” (INSERM (Institut National de la Santé et de la Recherche …, priority 2018, published 2021)

Target: T1, TLR9 (Homo sapiens, UniProt Q9NR96)
T1 sequence (Q9NR96 26-1032): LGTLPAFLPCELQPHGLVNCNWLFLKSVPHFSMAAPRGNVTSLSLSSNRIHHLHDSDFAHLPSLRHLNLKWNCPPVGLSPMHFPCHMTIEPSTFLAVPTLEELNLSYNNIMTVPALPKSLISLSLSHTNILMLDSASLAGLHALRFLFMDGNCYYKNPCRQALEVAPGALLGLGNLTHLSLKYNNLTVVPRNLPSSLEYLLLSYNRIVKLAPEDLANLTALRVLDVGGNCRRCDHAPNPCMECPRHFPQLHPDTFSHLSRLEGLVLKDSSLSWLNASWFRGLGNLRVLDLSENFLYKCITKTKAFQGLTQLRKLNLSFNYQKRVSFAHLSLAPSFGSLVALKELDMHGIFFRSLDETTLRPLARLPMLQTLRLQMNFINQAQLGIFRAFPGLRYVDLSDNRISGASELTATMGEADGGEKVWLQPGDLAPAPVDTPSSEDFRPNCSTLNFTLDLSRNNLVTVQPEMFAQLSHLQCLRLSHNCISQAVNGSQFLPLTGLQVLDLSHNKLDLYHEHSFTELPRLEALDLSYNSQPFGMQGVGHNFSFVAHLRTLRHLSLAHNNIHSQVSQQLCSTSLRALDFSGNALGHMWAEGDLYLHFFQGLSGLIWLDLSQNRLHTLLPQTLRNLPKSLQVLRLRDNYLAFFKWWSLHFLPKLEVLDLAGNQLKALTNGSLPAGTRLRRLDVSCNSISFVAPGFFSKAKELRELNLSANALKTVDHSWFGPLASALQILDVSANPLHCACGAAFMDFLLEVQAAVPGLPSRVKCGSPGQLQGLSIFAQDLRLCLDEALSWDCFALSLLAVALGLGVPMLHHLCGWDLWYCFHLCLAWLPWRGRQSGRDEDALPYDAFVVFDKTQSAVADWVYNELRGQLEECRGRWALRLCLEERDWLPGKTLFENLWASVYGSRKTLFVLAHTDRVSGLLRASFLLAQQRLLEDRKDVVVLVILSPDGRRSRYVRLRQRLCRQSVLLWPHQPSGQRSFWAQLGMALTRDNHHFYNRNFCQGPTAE
Assay: HEK-Blue hTLR9 SEAP reporter assay
Format: cell-based
Design: expressed in transfected cells; host or cells: HEK-Blue (HEK 293) hTLR9 reporter cells
Details: 2.5 μM ODN 2006, GBZ 50 μM
Method: FIG. 1: Guanabenz inhibits TLR3 and TLR9 activation in mouse Flt3-L DCs and human blood pDCs. A) Sorted bone marrow derived Flt3L-DCs were activated for 6 h with 10 μg/mL poly I:C LMW (TLR3 in DC1) or 1 μM ODN 1585 (TLR9 in pDCs). GBZ was added at 50 μM and inhibited IFN-β and Interleukin-6 (IL-6) production in activated cells. B) hTLR4, hTLR3, hTLR9 and hTLR7 expressed in the reporter HEK-Blue™ cells are inhibited by GBZ. TLR-expressing HEK-Blue™ cells were respectively activated with 100 ng/mL LPS, 10 μg/mL poly I:C LMW, 2.5 μM ODN 2006 or 5 μg/mL imiquimod, respectively. GBZ was added at 50 μM. TLR activity was measured indirectly through SEAP activity as absorbance at 405 nm. […] Protein concentration of IFN-α and TNF-α secreted were measured at the indicated time points or at 16 h. […]
Given the efficiency of GBZ on mouse TLR3 and TLR9, we turned to human TLRs, in order to extend the relevance of our observations. GBZ-mediated inhibition was first evaluated on NF-kB signaling by monitoring secreted alkaline phosphatase (SEAP) reporter levels in HEK-293 cells expressing TLR3, TLR4, TLR7, TLR9 (FIG. 1B). […] The functionality of the TLR9 transduction pathway was next evaluated by using phospho-flow detection of 40S ribosomal protein S6 (rpS6) phosphorylation, a well characterized early signaling event down-stream of TLR activation by LPS or viruses.

NC(N)=N/N=C/c1c(Cl)cccc1Cl [GBZ, 2-(2,6-dichlorobenzylidene)-hydrazinecarboximidamide]
TLR9-dependent activation of the SEAP reporter: inhibited
